Four compounds from patent publication US6686382B2, “Sulfonamides and derivatives thereof that modulate the activity of endothelin” (Encysive Pharmaceuticals Inc., priority 1999, dated 2004) can be followed below.

Series [1] has as its system ETA receptors and ETB receptors. Put plainly: Endothelin binding inhibition, ETA (TE 671) and ETB (transfected COS7) receptors: selectivity. Further details: species or system human. Conditions: antagonism of ETA receptors over ETB receptors. The source says:
Compounds that are potential endothelin antagonists are identified by testing their ability to compete with ^125I-labeled ET-1 for binding to human ETA receptors or ETB receptors present on isolated cell membranes. The effectiveness of the test compound as an antagonist or agonist of the biological tissue response of endothelin can also be assessed by measuring the effect on endothelin induced contraction of isolated rat thoracic aortic rings. The ability of the compounds to act as antagonists or agonists for ETB receptors can be assess by testing the ability of the compounds are to inhibit endothelin-1 induced prostacyclin release from cultured bovine aortic endothelial cells.
A. Endothelin Binding Inhibition—Binding Test #1: Inhibition of Binding to ETA Receptors
TE 671 cells (ATCC Accession No. HTB 139) express ETA receptors. These cells were grown to confluence in T-175 flasks. Cells from multiple flasks were collected by scraping, pooled and centrifugedfor 10 min at 190×g. The cells were resuspended in phosphate buffered saline (PBS) containing 10 mM EDTA using a Tenbroeck homogenizer. The suspension was centrifuged at 4° C. at 57,800×g for 15 min, the pellet was resuspended in 5 ml of buffer A (5 mM HEPES buffer, pH 7.4 containing aprotinin (100 KIU/ml)) and then frozen and thawed once. 5 ml of Buffer B (5 mM HEPES Buffer, pH 7.4 containing 10 mM MnCl2 and 0.001% deoxyribonuclease Type 1) was added, the suspension mixed by inversion and then incubated at 37° C. for 30 minutes. The mixture was centrifuged at 57,800×g as described above, the pellet washed twice with buffer A and then resuspended in buffer C (30 mM HEPES buffer, pH 7.4 containing aprotinin (100 KIU/ml) to give a final protein concentration of 2 mg/ml and stored at −70° C. until use.
The membrane suspension was diluted with binding buffer (30 mM HEPES buffer, pH 7.4 containing 150 mM NaCl, 5 mM MgCl2, 0.5% Bacitracin) to a concentration of 8 μg/50 μl. ^125I-endothelin-1 (3,000 cpm, […]) was added to 50 μL of either: (A) endothelin-1 (for non specific binding) to give a final concentration 80 nM); (B) binding buffer (for total binding); or (C) a test compound (final concentration 1 nM to 100 μM). The membrane suspension (50 μL), containing up to 8 μg of membrane protein, was added to each of (A), (B), or (C). Mixtures were shaken, and incubated at 4° C. for 16-18 hours, and then centrifuged at 4° C. for 25 min at 2,500×g. Alternatively, the incubation was conducted at 24° C. […] This, must be kept in mind when comparing IC50 concentrations among compounds provided herein.
The supernatant, containing unbound radioactivity, was decanted and the pellet counted on a Genesys multiwell gamma counter. The degree of inhibition of binding (D) was calculated according to the following equation: [formula]
B. Endothelin Binding Inhibition—Binding Test #2: Inhibition of Binding to ETB Receptors
COS7 cells were transfected with DNA encoding the ETB receptor, The resulting cells, which express the human ETB receptor, were grown to confluence in T-150 flasks. Membrane was prepared as described above. The binding assay was performed as described above using the membrane preparation diluted with binding buffer to a concentration of 1 μg/50 μl.
Briefly, the COS7 cells, described above, that had been transfected with DNA encoding the ETB receptor and express the human ETB receptor on their surfaces were grown to confluence in T-175 flasks. […]

The target in the next series is T1, CYP3A4 (Homo sapiens, UniProt P08684).
T1 construct: purchased Gentest Corporation P202
The experiment in a line: Cytochrome P450 enzyme assay, CYP3A4 (Gentest Supersomes, fluorometric). It counts as in vitro ADME. The settings on record: human recombinant enzyme, mean IC50; read-out: CP450 3A4 IC50. The method, then: In vitro assays to determine the concentration of the compounds provided herein required for 50% inhibition of substrate metabolism (IC50) by different human cytochrome P450 enzymes (2C9, 2C19, 3A4) were conducted using human recombinant cytochrome P450 enzyme assays, developed by Gentest Corporation. These assays contain Gentest Supersomes™ (specific human cytochrome P450 enzyme, co-expressed with P450 reductase and cytochrome b5), a NADPH regenerating system, substrate and a concentration range of the compounds provided herein. The fluorescent product was the measured end point for these assays. IC50s were calculated using a four-parameter logistic equation with the bottom fixed at 0% inhibition and the top fixed at 100% inhibition. (Values are the mean IC50±SD when n is greater than 1.)
Assays were conducted in 96-well microtiter plates using fluorometric assays developed by Gentest Corporation. The 12 wells in each row were used for one inhibition curve. Wells 1 to 8 contained serial 1:3 dilutions of the test compound. Wells 9 to 12 contained no inhibitor and wells 11 and 12 were blanks for background fluorescence (stop solution was added before the enzyme). All concentration curves were performed in duplicate. Incubations were initiated by the addition of enzyme and substrate to the pre-warmed reaction mixture. After a specific incubation period, the reaction was stopped by the addition of stop solution. Metabolite production per well was determined by measuring fluorescence using a fluorescent plate reader. Detailed experimental procedures for each enzyme are listed below. See, generally, Methodology of a high throughput method for measuring cytochrome P450 inhibition (Gentest Corporation, Technical Bulletin); Crespi, C. L.; Miller, V. P.; and Penman, B. W. (1997) Anal. Biochem. 248:188-190; and Geungerich, F. P. (1997) Adv. Pharm. 43:7-35.
A 0.2 ml/well reaction mixture containing 4 pmol CYP3A4 (P202), 1.3 mM NADP^+, 3.3 mM glucose-6-phosphate, 3.3 mM magnesium chloride 0.4 U/ml glucose-6-phosphate dehydrogenase, 0.01% pluronic F68, and 50 μM resorufin benzyl ether in 200 mM potassium phosphate (pH 7.4), was incubated at 37° C. for 30 minutes. Ketoconazole, a standard inhibitor of 3A4, was serially diluted from the highest concentration of 5 μM and acted as a positive control. […] After incubation, the reaction was stopped by the addition of 75 μl stop solution (80% acetonitrile/20% 0.5 M Tris base) and fluorescence/well was measured within 1 hour using a Spectra Fluor (Tecan) fluorescent plate reader. […]
The “% inhibition” was calculated as follows: [formula]
Concentration versus % inhibition curves were constructed in Prism (GraphPad, Inc.). The data was analyzed using “Top & Bottom Fixed” routine. […]

T1 sequence (P08684 2-503 limits assumed): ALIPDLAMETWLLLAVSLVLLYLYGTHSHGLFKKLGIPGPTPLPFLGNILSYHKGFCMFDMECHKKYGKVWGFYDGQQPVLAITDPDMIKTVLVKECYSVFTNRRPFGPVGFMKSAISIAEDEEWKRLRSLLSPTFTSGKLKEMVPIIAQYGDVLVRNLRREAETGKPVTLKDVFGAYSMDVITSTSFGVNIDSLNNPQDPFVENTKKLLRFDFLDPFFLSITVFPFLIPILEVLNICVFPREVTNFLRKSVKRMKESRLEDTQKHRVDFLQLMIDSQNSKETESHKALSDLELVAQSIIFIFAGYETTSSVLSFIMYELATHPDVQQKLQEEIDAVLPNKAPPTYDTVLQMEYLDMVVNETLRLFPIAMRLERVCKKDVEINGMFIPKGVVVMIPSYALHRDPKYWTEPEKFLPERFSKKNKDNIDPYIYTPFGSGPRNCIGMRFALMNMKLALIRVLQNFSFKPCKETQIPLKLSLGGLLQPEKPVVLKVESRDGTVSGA

In general, IC50 refers to the midpoint of a concentration-inhibition curve. As to `Cc1cc(C)c(NC(=O)c2sccc2S(=O)(=O)Nc2onc(C)c2Cl)c(S(C)(=O)=O)c1` [Compound 42, 3-{[(4-chloro-3-methyl-5-isoxazolyl)amino]sulfonyl)-N-[2,4-dimethyl-6-(methylsulfonyl)phenyl]-2-thiophenecarboxamide], the “Selectivity (IC50 for ETB/IC50 for ETA)” value in series [1] was 456,000. The concentration for half-maximal inhibition (IC50) at CYP3A4 was found to be 13.7 µM.

Take `CC(=O)c1cc(C)cc(C)c1NC(=O)c1sccc1S(=O)(=O)Nc1onc(C)c1C` [Compound 7, N-(2-acetyl-4,6-dimethylphenyl)-3-{[(3,4 dimethyl-5-isoxazolyl)amino]sulfonyl}-2-thiophenecarboxamide]: in series [1], the “Selectivity (IC50 for ETB/IC50 for ETA)” value is recorded as 441,000. Moreover, the half-maximal inhibitory concentration (IC50) at CYP3A4 stood at 28 µM.

Turning to `Cc1cc(C)c(NC(=O)c2sccc2S(=O)(=O)Nc2onc(C)c2Cl)c(Cl)c1` [Compound 34, N-(2-chloro-4,6-dimethylphenyl)-3-{[(4-chloro-3-methyl-5-isoxazolyl)amino]sulfonyl}2-thiophenecarboxamide], the “Selectivity (IC50 for ETB/IC50 for ETA)” value in series [1] was 166,000. Further, the IC50 at CYP3A4 came to 3.86 µM.

Turning to `Cc1cc2c(cc1CC(=O)c1sccc1S(=O)(=O)Nc1onc(C)c1Cl)OCO2` [N-(4-chloro-3-methyl-5-isoxazolyl)-2-{[3,4-(methylenedioxy)-6-methylphenyl)acetyl]-thiophene-3-sulfonamide, reference compound], the “Selectivity (IC50 for ETB/IC50 for ETA)” value in series [1] was 20,950. The IC50 on CYP3A4 worked out at 0.09 µM.
